From US20250127772A1, “SPECIFIC TETRADENTATE COPPER CHELATORS FOR THE TREATMENT OF WILSON'S DISEASE” (GUANGDONG UNIVERSITY OF TECHNOLOGY, priority 2023, published 2025)
Several values for one entry are separate records, joined by “and”; a condition that tells them apart may be missing. Identical values can stand only once. Like-named read-outs stand apart in the source and are kept apart here.

Columns and labels:
[1] = test system: homozygous toxic-milk mouse model (TX model); format: in vivo; settings: for Cu content Brain / Cu content Feces / Cu content Kidney / Cu content Liver / Cu content Serum / Cu content Urine: mean of 6 mice ± SEM
Excerpt: The selected drug-candidate TDMQ20 has been evaluated on the homozygous toxic-milk mouse model (TX model), a regular murine model of Wilson disease, suitable for evaluation of drug-candidates (for a review, see E. Reed et al., J. Neurochem., 146, 356-373, 2018). TX mice are bearing a naturally occurring point mutation on ATP7B resulting in a methionine changed for a valine, that causes the loss of copper transportation by this protein. C57BL/6 mice have no mutation on ATP7B and were used as control mice in the evaluation of TDMQ20. TX mice were provided by Sun Yat-Sen University (Guangzhou) and C57BL/6 mice by the Guangdong experimental animal center (Guangzhou) and all experiments were performed according to protocols approved by the Welfare Laboratory Animals Committee of the Guangdong University of Technology (approval n° GDUTXS2022083 dated on 3 Aug. 2022), in the framework of the 3 Rs principle.
[…] TX mice (WD) and 8-week-old C57BL/6 mice (Control) were used. TX mice (as WD, TDMQ-L, TDMQ-M, TDMQ-H groups, respectively) received the drug TDMQ20 by intragastric gavage twice a day for 14 consecutive days (at 0, 12.5, 25.0, 50.0 mg/kg in NaCl 0.9%). On the same schedule, C57BL/6 mice (as control group) received NaCl 0.9%. Treatment of WD mice with DPA (200 mg/kg) was used as comparison (DPA group). Six groups of 6 mice were used.
At the end of the treatment period, mice (10-week old) were placed in metabolic cages for 12 h in order to collect urine and feces. At the end of this 12 h-period, mice were anesthetized using 2.5% Avertin diluted in 0.9% NaCl at a dose of […] body weight and sacrificed. Cardiac blood was collected and left at room temperature for 30 minutes before centrifugation at 4° C. at 3000 r/min for 10 minutes to obtain serum samples. During this 30-min period, liver, kidney, brain and serum were also collected. Copper concentrations in urine and feces, serum, liver, kidney and brain were determined by inductively coupled plasma mass spectrometry (ICP-MS). Data analysis was carried out using SPSS Statistics software (version 26). Data are provided as mean values±standard error of the mean (SEM). Statistical analyses were performed using one-way ANOVA for liver, feces and urine, and by non-parametric test for serum, kidney, and brain. Differences with p>0.05 were considered as no significance (ns), * p<0.05, ** p<0.01, and *** p<0.001, n=6. Graph presentations were drawn with Prism GraphPad 8.0.2.

serum DEPs = test: Serum differentially expressed proteins (TMT LC-MS/MS) in treated TX mice; format: in vivo, mouse
Method: (§1) In order to confirm the positive role of TDMQ20 in the treatment of TX mice, we performed proteomic experiments. Samples from three mice of each group were depicted in Table 1, The samples were treated with TMT (Tandem Mass Tag) and detected by quantitative LC-MS/MS, then the data were analyzed with ProteomeDiscoverer 2.4.1.15 (ThermoFisher Scientific). Confidence proteins were screened according to the criteria of Sequest program score greater than 0 and number of unique peptides greater than or equal to 1, and blank values were removed.
Other differentially expressed proteins (DEPs) were screened at p<0.05 in the WD mouse group compared to the control group. […] Results are reported in Table 3 and 4 for hepatic and serum proteins, respectively.

ceruloplasmin (CP) = test: Serum ceruloplasmin by TMT LC-MS/MS in treated TX mice; format: in vivo, mouse; settings: for CP level compared with control mice: serum of TX mice
Method: as §1
The concentration of ceruloplasmin (CP), that contains the most part of blood copper, was measured by TMT LC-MS/MS in the serum of WD mice. […] The CP level was equal (25 mg/kg) or higher (50 mg/kg) than that observed in control mice. Since the level of CP is considered as a significant parameter in the clinical control of human Wilson's disease, the reversal of the CP impairment upon treatment by TDMQ20 confirms that this drug has a very good profile as drug-candidate for the treatment of Wilson's disease.

[2] = TX mice, TDMQ20-H 50 mg/kg/day gavage 14 days
[3] = TX mice, TDMQ20-L 12.5 mg/kg/day gavage 14 days
[4] = TX mice, TDMQ20-M 25 mg/kg/day gavage 14 days
[5] = serum, 25 mg/kg/day, DEP down-regulated in WD
[6] = serum, 25 mg/kg/day, DEP up-regulated in WD
[7] = serum, 50 mg/kg/day, DEP down-regulated in WD
[8] = serum, 50 mg/kg/day, DEP up-regulated in WD

CN(C)CCNCCc1ccc2c(Cl)cc(Cl)c(N)c2n1 [TDMQ20]
copper content in feces versus untreated WD mice or DPA 200 mg/kg/day ([1]; TX mice, TDMQ20 25 or 50 mg/kg/day): significantly higher
Cu content Brain [1, 2]: 3.5 ± 0.1 mg/kg
Cu content Feces [1, 2]: 142 ± 10 mg/kg
Cu content Kidney [1, 2]: 11.0 ± 1.7 mg/kg
Cu content Liver [1, 2]: 200 ± 14 mg/kg
Cu content Serum [1, 2]: 3.5 ± 0.6 mg/L
Cu content Urine [1, 2]: 0.98 ± 0.05 mg/L
Cu content Brain [1, 3]: 3.2 ± 0.2 mg/kg
Cu content Feces [1, 3]: 88 ± 3 mg/kg
Cu content Kidney [1, 3]: 5.5 ± 0.3 mg/kg
Cu content Liver [1, 3]: 290 ± 4 mg/kg
Cu content Serum [1, 3]: 0.63 ± 0.04 mg/L
Cu content Urine [1, 3]: 0.76 ± 0.13 mg/L
Cu content Brain [1, 4]: 3.3 ± 0.2 mg/kg
Cu content Feces [1, 4]: 129 ± 4 mg/kg
Cu content Kidney [1, 4]: 5.0 ± 0.4 mg/kg
Cu content Liver [1, 4]: 256 mg/kg and 256 ± 8 mg/kg
Cu content Serum [1, 4]: 0.83 ± 0.12 mg/L
Cu content Urine [1, 4]: 0.67 ± 0.10 mg/L
copper concentration in urine, concentration ratio TDMQ20-H/WD ([1]; TX mice, TDMQ20 at 50 mg/kg, factor versus WD mice, 50 mg/kg): 1.8 and 1.75
concentration of copper in kidney, factor versus WD mice ([1]; TX mice, TDMQ20 at 50 mg/kg, ratio TDMQ20-H/WD): 1.64
copper concentration in the brain versus WD mice ([1]; mouse, in vivo): no increase of copper concentration
serum DEPs TDMQ20-H/control ratio (serum DEPs; TDMQ20 50 mg/kg): ~1
serum DEPs after treatment (serum DEPs; TDMQ20 at 25 or 50 mg/kg): reversed to normal values
TDMQ20-M/ctrl fold change: Alpha-aminoadipic semialdehyde synthase, mitochondrial (Aass) (serum DEPs; [5]): 0.97
TDMQ20-M/ctrl fold change: Cystatin-C (Cst3) (serum DEPs; [5]): 0.88
TDMQ20-M/ctrl fold change: Elongation factor 1-delta (Eef1d) (serum DEPs; [5]): 0.85
TDMQ20-M/ctrl fold change: GrpE protein homolog 1, mitochondrial (Grpel1) (serum DEPs; [5]): 0.95
TDMQ20-M/ctrl fold change: Transgelin-2 (Tagln2) (serum DEPs; [5]): 0.87
TDMQ20-M/ctrl fold change: Ig heavy chain V region 1-72 (Ighv1-72) (serum DEPs; [6]): 1.08
TDMQ20-M/ctrl fold change: Regucalcin (Rgn) (serum DEPs; [6]): 1.06
TDMQ20-M/ctrl fold change: Ribonuclease 4 (Rnase4) (serum DEPs; [6]): 1.10
TDMQ20-M/ctrl fold change: Triokinase/FMN cyclase (Tkfc) (serum DEPs; [6]): 1.07
TDMQ20-M/ctrl fold change: Tropomyosin alpha-3 chain (Tpm3) (serum DEPs; [6]): 1.11
TDMQ20-H/ctrl fold change: Alpha-aminoadipic semialdehyde synthase, mitochondrial (Aass) (serum DEPs; [7]): 0.93
TDMQ20-H/ctrl fold change: Cystatin-C (Cst3) (serum DEPs; [7]): 0.92
TDMQ20-H/ctrl fold change: Elongation factor 1-delta (Eef1d) (serum DEPs; [7]): 0.88
TDMQ20-H/ctrl fold change: GrpE protein homolog 1, mitochondrial (Grpel1) (serum DEPs; [7]): 1.04
TDMQ20-H/ctrl fold change: Transgelin-2 (Tagln2) (serum DEPs; [7]): 0.91
TDMQ20-H/ctrl fold change: Ig heavy chain V region 1-72 (Ighv1-72) (serum DEPs; [8]): 1.15
TDMQ20-H/ctrl fold change: Regucalcin (Rgn) (serum DEPs; [8]): 0.88
TDMQ20-H/ctrl fold change: Ribonuclease 4 (Rnase4) (serum DEPs; [8]): 1.03
TDMQ20-H/ctrl fold change: Triokinase/FMN cyclase (Tkfc) (serum DEPs; [8]): 0.95
TDMQ20-H/ctrl fold change: Tropomyosin alpha-3 chain (Tpm3) (serum DEPs; [8]): 0.95
level of CP compared to WD mice (ceruloplasmin (CP); TDMQ20 at 25 or 50 mg/kg): significantly increased
CP level compared with control mice (ceruloplasmin (CP); TDMQ20 25 mg/kg): equal
CP level compared with control mice (ceruloplasmin (CP); TDMQ20 50 mg/kg): higher
